From article PMC6720883, “In Vitro Inhibitory Effects of APINACA on Human Major Cytochrome P450, UDP-Glucuronosyltransferase Enzymes, and Drug Transporters” (Molecules, 2019)

How the values were obtained:
OCT2 = molecular target: T1, OCT2 (Homo sapiens, UniProt O15244); assay: Uptake of [3-H]methyl-4-phenylpyridinium in HEK293-OCT2 cells; format: in vitro ADME; conditions: for Transport Rate (pmol/min) (mean ± SD): 0.1 μM probe substrate, n=3
T1 construct: host or cells: HEK293 (transient overexpression)
T1 sequence (O15244 1-555): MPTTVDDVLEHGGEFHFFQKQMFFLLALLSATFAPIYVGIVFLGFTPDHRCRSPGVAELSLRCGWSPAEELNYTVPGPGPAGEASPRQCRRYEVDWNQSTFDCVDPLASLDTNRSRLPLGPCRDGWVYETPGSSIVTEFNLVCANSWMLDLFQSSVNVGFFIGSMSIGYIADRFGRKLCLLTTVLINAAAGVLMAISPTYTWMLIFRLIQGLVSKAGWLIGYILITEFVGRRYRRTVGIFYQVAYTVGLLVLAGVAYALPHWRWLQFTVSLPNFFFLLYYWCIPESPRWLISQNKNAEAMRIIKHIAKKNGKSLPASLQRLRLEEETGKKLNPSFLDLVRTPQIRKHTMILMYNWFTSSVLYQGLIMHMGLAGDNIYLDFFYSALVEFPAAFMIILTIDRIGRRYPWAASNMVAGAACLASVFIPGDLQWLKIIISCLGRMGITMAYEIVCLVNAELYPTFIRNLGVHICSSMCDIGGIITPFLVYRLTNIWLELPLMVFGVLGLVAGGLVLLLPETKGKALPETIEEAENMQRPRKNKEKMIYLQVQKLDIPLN
Procedure: (§1) To examine the effects of APINACA and typical inhibitors on transporter activity, the uptake of a probe substrate into HEK293 cells overexpressing the respective solute carrier transporters was measured in the presence of APINACA (final concentrations of 0–250 μM) or typical inhibitors for 5 min. The concentrations and probe substrates were selected as follows: 0.1 μM [3-H]MPP^+ (for OCT1 and OCT2), 0.1 μM [3-H]PAH (for OAT1), 0.1 μM [3-H]ES (for OAT3 and OATP1B1), and 0.1 μM [3-H]EG (for OATP1B3).
(§2) 12.5 (Systat Software, Inc.; San Jose, CA, USA). […] 1.1 (Systat Software, Inc.).

P-glycoprotein (P-gp) = P-glycoprotein (P-gp) (Homo sapiens, UniProt P08183); assay: B to A transport of [3-H]digoxin in LLC-PK1-MDR1 cells; conditions: for Transport Rate (pmol/min) (mean ± SD): 0.1 μM probe substrate, B to A, n=3
Procedure: The cells were seeded onto filter membranes at a density of 2 × 10^5 cells/well for 5 days with TEER values over 450 Ω·cm^2. The B to A transport of 0.1 μM [3-H]digoxin in LLC-PK1-MDR1 cells was measured by adding 1.5 mL of HBSS containing APINACA (final concentrations of 0–100 μM) on the basal side and by adding 0.5 mL of HBSS without APINACA on the apical side of the insert using protocols identical to those described above.
(§3) 1.1 (Systat Software, Inc.).

OAT3 = molecular target: T2, OAT3 (Homo sapiens, UniProt Q8TCC7); assay: Uptake of [3-H]estrone-3-sulfate in HEK293-OAT3 cells; format: in vitro ADME; conditions: for Transport Rate (pmol/min) (mean ± SD): 0.1 μM probe substrate, n=3
T2 construct: host or cells: HEK293 (transient overexpression)
T2 sequence (Q8TCC7 1-542): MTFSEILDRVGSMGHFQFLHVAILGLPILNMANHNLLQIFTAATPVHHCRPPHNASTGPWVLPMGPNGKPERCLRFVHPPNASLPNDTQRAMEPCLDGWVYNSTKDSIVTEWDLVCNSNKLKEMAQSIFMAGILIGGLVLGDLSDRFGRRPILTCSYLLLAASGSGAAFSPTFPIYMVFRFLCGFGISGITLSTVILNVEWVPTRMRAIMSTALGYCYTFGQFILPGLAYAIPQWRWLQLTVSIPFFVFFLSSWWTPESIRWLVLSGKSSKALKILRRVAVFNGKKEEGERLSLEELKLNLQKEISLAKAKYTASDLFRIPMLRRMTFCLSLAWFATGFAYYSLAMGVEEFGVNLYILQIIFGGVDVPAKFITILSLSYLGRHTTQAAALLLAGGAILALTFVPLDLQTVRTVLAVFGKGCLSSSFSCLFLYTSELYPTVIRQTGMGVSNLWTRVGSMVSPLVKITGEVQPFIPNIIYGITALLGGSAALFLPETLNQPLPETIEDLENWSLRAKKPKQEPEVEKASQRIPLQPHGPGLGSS
Procedure: The concentrations and probe substrates were selected as follows: 0.1 μM [3-H]MPP^+ (for OCT1 and OCT2), 0.1 μM [3-H]PAH (for OAT1), 0.1 μM [3-H]ES (for OAT3 and OATP1B1), and 0.1 μM [3-H]EG (for OATP1B3).
as §3

BCRP = molecular target: T3, BCRP (Homo sapiens, UniProt Q9UNQ0); assay: B to A transport of [3-H]estrone-3-sulfate in LLC-PK1-BCRP cells; format: in vitro ADME; conditions: for Transport Rate (pmol/min) (mean ± SD): 0.1 μM probe substrate, B to A, n=3
T3 sequence (Q9UNQ0 1-655): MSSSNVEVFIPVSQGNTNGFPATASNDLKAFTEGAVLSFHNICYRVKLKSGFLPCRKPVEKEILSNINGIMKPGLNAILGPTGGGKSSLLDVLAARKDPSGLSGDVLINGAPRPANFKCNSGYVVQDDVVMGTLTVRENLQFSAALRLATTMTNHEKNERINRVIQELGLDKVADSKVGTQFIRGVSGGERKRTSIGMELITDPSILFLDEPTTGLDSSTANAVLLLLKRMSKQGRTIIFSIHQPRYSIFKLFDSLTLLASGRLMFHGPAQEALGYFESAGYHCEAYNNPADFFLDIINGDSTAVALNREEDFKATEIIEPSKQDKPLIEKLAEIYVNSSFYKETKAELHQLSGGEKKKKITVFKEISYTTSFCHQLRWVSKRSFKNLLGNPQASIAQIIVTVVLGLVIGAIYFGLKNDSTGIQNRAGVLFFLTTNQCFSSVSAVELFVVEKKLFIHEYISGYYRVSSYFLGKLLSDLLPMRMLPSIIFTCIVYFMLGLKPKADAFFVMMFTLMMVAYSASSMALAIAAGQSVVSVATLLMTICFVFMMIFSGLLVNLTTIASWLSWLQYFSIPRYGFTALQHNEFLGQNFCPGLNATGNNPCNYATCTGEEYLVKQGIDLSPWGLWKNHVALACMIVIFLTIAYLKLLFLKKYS

OATP1B1 = molecular target: T4, OATP1B1 (Homo sapiens, UniProt Q9Y6L6); assay: Uptake of [3-H]estrone-3-sulfate in HEK293-OATP1B1 cells; format: in vitro ADME; conditions: for Transport Rate (pmol/min) (mean ± SD): 0.1 μM probe substrate, n=3
T4 construct: host or cells: HEK293 (transient overexpression)
T4 sequence (Q9Y6L6 1-691): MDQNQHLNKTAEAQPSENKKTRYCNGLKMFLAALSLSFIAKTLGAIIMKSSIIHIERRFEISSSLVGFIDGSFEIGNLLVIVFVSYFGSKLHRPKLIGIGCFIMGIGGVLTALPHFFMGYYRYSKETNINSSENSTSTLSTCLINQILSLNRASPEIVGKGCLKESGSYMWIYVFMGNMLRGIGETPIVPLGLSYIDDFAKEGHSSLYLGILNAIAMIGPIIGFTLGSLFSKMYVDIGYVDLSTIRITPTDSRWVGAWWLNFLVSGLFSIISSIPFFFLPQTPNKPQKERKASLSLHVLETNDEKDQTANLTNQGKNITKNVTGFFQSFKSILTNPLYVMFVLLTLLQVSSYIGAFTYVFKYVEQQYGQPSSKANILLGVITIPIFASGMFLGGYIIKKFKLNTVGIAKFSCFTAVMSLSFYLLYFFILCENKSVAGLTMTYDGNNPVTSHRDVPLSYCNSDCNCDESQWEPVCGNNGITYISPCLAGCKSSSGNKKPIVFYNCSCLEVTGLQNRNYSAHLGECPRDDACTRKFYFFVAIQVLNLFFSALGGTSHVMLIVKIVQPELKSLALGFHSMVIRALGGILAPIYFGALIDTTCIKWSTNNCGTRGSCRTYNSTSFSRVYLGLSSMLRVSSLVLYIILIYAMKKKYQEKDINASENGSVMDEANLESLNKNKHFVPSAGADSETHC
Procedure: as §1, §2

OCT1 = molecular target: T5, OCT1 (Homo sapiens, UniProt O15245); assay: Uptake of [3-H]methyl-4-phenylpyridinium in HEK293-OCT1 cells; format: in vitro ADME; conditions: for Transport Rate (pmol/min) (mean ± SD): 0.1 μM probe substrate, n=3
T5 construct: host or cells: HEK293 (transient overexpression)
T5 sequence (O15245 1-554): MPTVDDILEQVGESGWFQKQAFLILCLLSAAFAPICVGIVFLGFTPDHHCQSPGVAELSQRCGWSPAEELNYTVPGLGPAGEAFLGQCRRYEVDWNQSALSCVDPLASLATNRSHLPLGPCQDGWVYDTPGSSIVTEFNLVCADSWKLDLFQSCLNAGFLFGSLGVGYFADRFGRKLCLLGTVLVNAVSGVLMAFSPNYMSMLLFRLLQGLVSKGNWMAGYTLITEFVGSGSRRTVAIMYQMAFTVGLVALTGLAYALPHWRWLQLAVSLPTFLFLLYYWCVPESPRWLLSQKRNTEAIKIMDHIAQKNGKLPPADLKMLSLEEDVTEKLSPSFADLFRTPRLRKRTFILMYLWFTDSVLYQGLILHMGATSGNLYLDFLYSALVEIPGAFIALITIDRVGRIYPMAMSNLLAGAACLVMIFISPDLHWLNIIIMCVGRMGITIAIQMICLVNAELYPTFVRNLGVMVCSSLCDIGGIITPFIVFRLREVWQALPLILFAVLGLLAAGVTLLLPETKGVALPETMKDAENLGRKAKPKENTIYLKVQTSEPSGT
Procedure: as §1, §2

Chain of P-glycoprotein (P-gp) (P08183 whole entry): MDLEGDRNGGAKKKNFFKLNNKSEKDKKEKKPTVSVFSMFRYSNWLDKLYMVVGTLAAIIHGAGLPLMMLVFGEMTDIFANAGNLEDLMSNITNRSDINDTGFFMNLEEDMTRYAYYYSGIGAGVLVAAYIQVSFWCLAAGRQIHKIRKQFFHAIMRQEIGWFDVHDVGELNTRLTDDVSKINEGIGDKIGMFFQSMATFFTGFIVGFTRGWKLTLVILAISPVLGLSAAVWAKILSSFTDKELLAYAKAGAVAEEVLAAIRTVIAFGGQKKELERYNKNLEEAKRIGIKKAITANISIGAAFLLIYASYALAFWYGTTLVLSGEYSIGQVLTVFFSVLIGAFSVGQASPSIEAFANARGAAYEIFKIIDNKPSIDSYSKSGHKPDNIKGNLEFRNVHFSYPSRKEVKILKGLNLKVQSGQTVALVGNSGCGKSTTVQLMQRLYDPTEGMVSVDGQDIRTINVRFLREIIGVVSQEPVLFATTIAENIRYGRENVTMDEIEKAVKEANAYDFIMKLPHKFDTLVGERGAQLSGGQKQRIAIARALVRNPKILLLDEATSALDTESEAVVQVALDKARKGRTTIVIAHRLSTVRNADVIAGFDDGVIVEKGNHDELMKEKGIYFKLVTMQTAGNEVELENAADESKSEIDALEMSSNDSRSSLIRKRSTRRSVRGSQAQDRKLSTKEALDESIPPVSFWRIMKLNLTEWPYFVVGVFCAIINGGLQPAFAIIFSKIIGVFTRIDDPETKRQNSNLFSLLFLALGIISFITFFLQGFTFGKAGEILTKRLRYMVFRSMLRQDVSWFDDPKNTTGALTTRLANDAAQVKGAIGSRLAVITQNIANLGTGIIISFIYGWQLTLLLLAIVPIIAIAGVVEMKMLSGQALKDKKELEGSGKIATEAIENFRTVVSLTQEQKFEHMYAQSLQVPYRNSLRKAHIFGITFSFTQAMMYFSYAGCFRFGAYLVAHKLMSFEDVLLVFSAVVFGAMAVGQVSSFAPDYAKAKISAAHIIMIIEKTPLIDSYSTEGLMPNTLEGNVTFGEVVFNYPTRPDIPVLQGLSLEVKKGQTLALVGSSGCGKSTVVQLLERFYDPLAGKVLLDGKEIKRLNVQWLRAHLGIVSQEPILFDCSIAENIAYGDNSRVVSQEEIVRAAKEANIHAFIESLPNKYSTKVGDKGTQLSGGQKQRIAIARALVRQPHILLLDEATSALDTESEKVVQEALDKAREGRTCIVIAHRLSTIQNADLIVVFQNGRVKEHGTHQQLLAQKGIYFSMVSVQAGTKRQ

## CN/C(=N/CCSCc1nc[nH]c1C)NC#N [Cimetidine]
OCT2; HEK293-OCT2 cells, 0.1 μM [3-H]methyl-4-phenylpyridinium, 5 min uptake, read-out: IC50 for inhibition of OCT2 transport
  IC50: 197 µM

## C[C@H]1O[C@@H](O[C@H]2[C@@H](O)C[C@H](O[C@H]3[C@@H](O)C[C@H](O[C@H]4CC[C@@]5(C)[C@H](CC[C@@H]6[C@@H]5C[C@@H](O)[C@]5(C)[C@@H](C7=CC(=O)OC7)CC[C@]65O)C4)O[C@@H]3C)O[C@@H]2C)C[C@H](O)[C@@H]1O [Digoxin]
P-glycoprotein (P-gp); LLC-PK1-MDR1 versus Mock
  Fold Increase of transport rate: 7.3
P-glycoprotein (P-gp); LLC-PK1 Mock cells (comparison for MDR1)
  Transport Rate (pmol/min) (mean ± SD): 0.14 ± 0.02 pmol/min
P-glycoprotein (P-gp); LLC-PK1 cells overexpressing MDR1 (P-gp)
  Transport Rate (pmol/min) (mean ± SD): 1.06 ± 0.07 pmol/min

## C[C@]12CC[C@@H]3c4ccc(OS(=O)(=O)O)cc4CC[C@H]3[C@@H]1CCC2=O [Estrone-3-sulfate]
OAT3; HEK293-OAT3 versus Mock
  Fold Increase of transport rate: 15.3
OAT3; HEK293 Mock cells (comparison for OAT3)
  Transport Rate (pmol/min) (mean ± SD): 0.98 ± 0.20 pmol/min
OAT3; HEK293 cells overexpressing OAT3
  Transport Rate (pmol/min) (mean ± SD): 14.96 ± 3.09 pmol/min
BCRP; LLC-PK1-BCRP versus Mock
  Fold Increase of transport rate: 4.7
BCRP; LLC-PK1 Mock cells (comparison for BCRP)
  Transport Rate (pmol/min) (mean ± SD): 0.44 ± 0.07 pmol/min
BCRP; LLC-PK1 cells overexpressing BCRP
  Transport Rate (pmol/min) (mean ± SD): 2.09 ± 0.12 pmol/min
OATP1B1; HEK293-OATP1B1 versus Mock
  Fold Increase of transport rate: 16.5
OATP1B1; HEK293 Mock cells (comparison for OATP1B1)
  Transport Rate (pmol/min) (mean ± SD): 0.76 ± 0.04 pmol/min
OATP1B1; HEK293 cells overexpressing OATP1B1
  Transport Rate (pmol/min) (mean ± SD): 12.58 ± 1.57 pmol/min

## C[n+]1ccc(-c2ccccc2)cc1 [Methyl-4-phenylpyridinium]
OCT2; HEK293-OCT2 versus Mock
  Fold Increase of transport rate: 25.5
OCT2; HEK293 Mock cells (comparison for OCT2)
  Transport Rate (pmol/min) (mean ± SD): 0.66 ± 0.11 pmol/min
OCT2; HEK293 cells overexpressing OCT2
  Transport Rate (pmol/min) (mean ± SD): 16.78 ± 0.43 pmol/min
OCT1; HEK293-OCT1 versus Mock
  Fold Increase of transport rate: 17.1
OCT1; HEK293 Mock cells (comparison for OCT1)
  Transport Rate (pmol/min) (mean ± SD): 0.60 ± 0.09 pmol/min
OCT1; HEK293 cells overexpressing OCT1
  Transport Rate (pmol/min) (mean ± SD): 10.24 ± 0.98 pmol/min
